Consider 15 molecules from patent US9662310B2, “Cyclopropanecarboxylic acid derivative” (DAIICHI SANKYO COMPANY, LIMITED, priority 2010, dated 2017).

For orientation: IC50 means the concentration at which inhibition is half-maximal.

The subject of one experiment is iron chloride-induced thrombus models.
Assay: not given
The settings on record: mice, intravenous administration; cited from earlier work.
Regarding “potato carboxypeptidase inhibitor (PCI) (QQHADPICNKPCKTHDDCSGAWFCQACWNSARTCGPYVG; UniProt P01075 1-39, looked up)”, the antithrombotic effect result is listed as “antithrombotic effect”.

For another experiment, the target named is TAFIa (Homo sapiens (Human), UniProt Q96IY4). Briefly: Determination of TAFIa enzyme inhibitory activity (FAAK substrate degradation). The format is biochemical. The settings on record: TAFI activated with human thrombin / rabbit lung thrombomodulin; substrate FAAK, absorbance at 330 nm; read-out: TAFIa IC50. The protocol: Determination of TAFIa Enzyme Inhibitory Activity
Sequence of TAFIa (Q96IY4 115-423): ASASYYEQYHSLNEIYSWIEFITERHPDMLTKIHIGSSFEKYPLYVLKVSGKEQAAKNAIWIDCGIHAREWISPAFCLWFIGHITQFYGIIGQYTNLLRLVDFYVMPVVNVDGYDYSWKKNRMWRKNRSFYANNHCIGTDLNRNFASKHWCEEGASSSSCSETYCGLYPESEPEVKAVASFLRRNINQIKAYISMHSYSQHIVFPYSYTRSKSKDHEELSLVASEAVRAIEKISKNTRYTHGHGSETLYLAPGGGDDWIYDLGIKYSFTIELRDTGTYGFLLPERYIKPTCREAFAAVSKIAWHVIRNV
HEPES buffered saline (20 mM HEPES, 150 mM NaCl, pH 7.4; hereinafter, referred to as HBS) was used in the preparation of a reaction solution. To 12 μL of a 250 μg/mL TAFI solution, 30 μL of an HBS solution containing 4 U/mL human thrombin, 12 U/mL rabbit lung thrombomodulin, and 12 mM CaCl2 was added, and the mixture was gently stirred. Then, TAFI was activated at room temperature. Ten minutes later, thrombin was neutralized by the addition of 10 μL of 100 μM PPACK (thrombin inhibitor) to terminate the activation of TAFI. The formed TAFIa was stored in ice and diluted immediately before use in determination with 2050 μL of an HBS solution containing BSA (bovine serum albumin) adjusted to 0.1% in terms of the final concentration.
(2) Determination of TAFIa Inhibitory Activity
A test substance was dissolved in HBS to prepare a 10-fold dilution series of evaluation concentrations. 80 μL of the TAFIa solution and 10 μL of the test substance were added to each well of a 96-well plate and mixed by shaking for 10 minutes. 10 μL of furylacryloyl-alanyl-lysine (FAAK) adjusted to 5 mg/mL was added to each well, and the change in the absorbance of this mixed solution at 330 nm was read for 30 minutes to determine the degradation rate of the substrate.
(3) Calculation of Inhibitory Activity IC50
The degradation rate of the substrate in each well was applied to a standard curve prepared using the dilution series of the TAFIa solution to calculate TAFIa activity.
As for `C[C@@H](CN)C[C@H]1C[C@]1(C(=O)O)c1cn(-c2ccccn2)cn1` [Example 54, (1R,2S)-2-[(2R)-3-Amino-2-methylpropyl]-1-(1-pyridin-2-yl-1H-imidazol-4-yl]cyclopropanecarboxylic acid], the IC50 is 11 nM. Same read-out and setting: then `C[C@@H](CN)C[C@@H]1C[C@@]1(C(=O)O)c1cn(-c2ccccn2)cn1` [Example 55, (1S,2R)-2-[(2R)-3-Amino-2-methylpropyl]-1-(1-pyridin-2-yl-1H-imidazol-4-yl]cyclopropanecarboxylic acid], with above 3000 nM. The same measure, in the same setting: then `C[C@H](CN)C[C@H]1C[C@]1(C(=O)O)c1cn(-c2ccccn2)cn1` [Example 56, (1R,2S)-2-[(2S)-3-Amino-2-methylpropyl]-1-(1-pyridin-2-yl-1H-imidazol-4-yl]cyclopropanecarboxylic acid], with 33 nM. Same read-out and setting: then `C[C@H](CN)C[C@@H]1C[C@@]1(C(=O)O)c1cn(-c2ccccn2)cn1` [Example 57, (1S,2R)-2-[(2S)-3-Amino-2-methylpropyl]-1-(1-pyridin-2-yl-1H-imidazol-4-yl]cyclopropanecarboxylic acid], with 490 nM; and `Cc1ccc(-n2cnc([C@@]3(C(=O)O)C[C@@H]3C[C@@H](C)CN)c2)nc1` [Example 58, (1R,2S)-2-[(2R)-3-Amino-2-methylpropyl]-1-[1-(5-methylpyridin-2-yl)-1H-imidazol-4-yl]cyclopropanecarboxylic acid], with 8.7 nM. Consider `Cc1ccc(-n2cnc([C@]3(C(=O)O)C[C@H]3C[C@@H](C)CN)c2)nc1` [Example 59, (1S,2R)-2-[(2R)-3-Amino-2-methylpropyl]-1-[1-(5-methylpyridin-2-yl)-1H-imidazol-4-yl]cyclopropanecarboxylic acid], for which the concentration for half-maximal inhibition (IC50) worked out at 500 nM.

For the molecule `CC[C@@H](CN)C[C@H]1C[C@]1(C(=O)O)c1cn(-c2ccccn2)cn1` [Example 60, (1R,2S)-2-[(2R)-2-(Aminomethyl)butyl]-1-(1-pyridin-2-yl-1H-imidazol-4-yl)cyclopropanecarboxylic acid], the IC50 worked out at 8.3 nM. For the molecule `CC[C@@H](CN)C[C@@H]1C[C@@]1(C(=O)O)c1cn(-c2ccccn2)cn1` [Example 61, (1S,2R)-2-[(2R)-2-(Aminomethyl)butyl]-1-(1-pyridin-2-yl-1H-imidazol-4-yl)cyclopropanecarboxylic acid], the IC50 was determined as 360 nM. Turning to `CC[C@@H](CN)C[C@H]1C[C@]1(C(=O)O)c1cn(-c2ccccc2)cn1` [Example 62, (1R,2S)-2-[(2R)-2-(Aminomethyl)butyl]-1-(1-phenyl-1H-imidazol-4-yl)cyclopropanecarboxylic acid], the IC50 is 7.9 nM. Still for that read-out and setting: then `C[C@H](CCN)C1CC1(C(=O)O)c1cn(-c2ccccn2)cn1` (stereo partly drawn) [Example 68, 2-[(2R)-4-Aminobutane-2-yl]-1-[1-(pyridin-2-yl)-1H-imidazol-4-yl)cyclopropanecarboxylic acid], with 12 nM.

The experiment is the same for the next values; noted with them: read-out: TAFIa IC50.
Regarding `CCC(CN)CC1C[C@]1(C(=O)O)c1cn(-c2ccccc2)cn1` (stereo partly drawn) [Example 53, (1R,2S)-2-[(2-Aminomethyl)butyl]-1-(1-phenyl-1H-imidazol-4-yl]cyclopropanecarboxylic acid], the IC50 worked out at 13 nM.

Regarding `CC[C@H](CN)C[C@H]1C[C@]1(C(=O)O)c1cn(-c2ccccc2)cn1` [Example 63, (1R,2S)-2-[(25)-2-(Aminomethyl)butyl]-1-(1-phenyl-1H-imidazol-4-yl)cyclopropanecarboxylic acid], the IC50 was found to be 12 nM. On the same count and under the same terms, with `CCC[C@@H](CN)C[C@H]1C[C@]1(C(=O)O)c1cn(-c2ccccn2)cn1` [Example 66, (1R,2S)-2-[(2R)-2-(Aminomethyl)pentyl]-1-(1-pyridin-2-yl-1H-imidazol-4-yl)cyclopropanecarboxylic acid] the figure was 41 nM. Same read-out and setting: then `CCC[C@@H](CN)C[C@@H]1C[C@@]1(C(=O)O)c1cn(-c2ccccn2)cn1` [Example 67, (1S,2R)-2-[(2R)-2-(Aminomethyl)pentyl]-1-(1-pyridin-2-yl-1H-imidazol-4-yl)cyclopropanecarboxylic acid], with above 100 nM.
